From article PMC4979527, “Post-translational allosteric activation of the P2X7 receptor through glycosaminoglycan chains of CD44 proteoglycans” (Cell Death Discovery, 2015)
Entries after “also recorded” stand apart in the source; their conditions may differ.

Tests used:
[1] = target: T1, P2X7 receptor (Cricetulus griseus, UniProt A0A9J7FWH6); assay: Cytoplasmic Ca2+ influx (Fluo-4, Flex Station 3) in wild-type CHO-K1 cells; type: cell-based, Chinese hamster; conditions: for Increase of Ca2+cyt response by heparin pre-treatment: heparin pre-incubation 5 min (10-100 μM)
T1 sequence (A0A9J7FWH6 1-593): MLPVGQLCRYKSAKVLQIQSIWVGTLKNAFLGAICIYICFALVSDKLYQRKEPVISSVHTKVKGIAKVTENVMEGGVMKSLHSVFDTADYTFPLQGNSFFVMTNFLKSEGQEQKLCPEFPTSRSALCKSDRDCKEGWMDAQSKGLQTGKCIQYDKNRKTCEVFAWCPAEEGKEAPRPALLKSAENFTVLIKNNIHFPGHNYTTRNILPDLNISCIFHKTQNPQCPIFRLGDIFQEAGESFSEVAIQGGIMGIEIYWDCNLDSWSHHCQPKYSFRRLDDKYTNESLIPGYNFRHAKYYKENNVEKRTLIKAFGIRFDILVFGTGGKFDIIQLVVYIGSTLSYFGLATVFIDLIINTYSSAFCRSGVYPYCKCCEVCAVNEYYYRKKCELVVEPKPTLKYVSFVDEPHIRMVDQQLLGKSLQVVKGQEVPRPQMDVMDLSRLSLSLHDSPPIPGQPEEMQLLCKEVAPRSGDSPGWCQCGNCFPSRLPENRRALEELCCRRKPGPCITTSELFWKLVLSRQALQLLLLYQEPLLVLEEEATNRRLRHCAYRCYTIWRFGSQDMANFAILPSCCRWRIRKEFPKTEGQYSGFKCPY
Method: (§1) Cytoplasmic Ca^2+ influx, [Ca^2+]cyt, measurements were monitored through changes of the Fluo-4 fluorescence intensity in real time using the Flex Station 3 microplate reader system. CHO-K1 (●-●) and CHO-745 ([…]-[…]) cells were seeded onto black 96-well plates (10^4 cells/well). Then, the cells were incubated with Fluo-4 for 1 h at 37 °C. […] The data represent the mean±S.E.M. (N=6).
(§2) Subsequently, the cells were incubated with Fluo-4 Direct Calcium Assay reagent for 1 h at 37 °C, according to the manufacturer’s instructions. The samples were stimulated with different agonists, and the fluorescence was quantified using a Flex Station 3 microplate reader (Molecular Devices, Sunnyvale, CA, USA). The Fluo-4 was excited at 490 nm and the emission was detected at 525 nm.[57]

[2] = target: T1, P2X7 receptor; assay: Cytoplasmic Ca2+ influx (Fluo-4, Flex Station 3) in mutant CHO-745 cells defective in GAGs; type: cell-based, Chinese hamster; conditions: for Increase of Ca2+ response by heparin pre-treatment: heparin pre-incubation 5 min (10-100 μM)
Method: as §1, §2

[3] = system: P2 receptors; assay: Cytoplasmic Ca2+ influx (Fluo-4) in CHO cells, both lines; type: cell-based, Chinese hamster; conditions: for Intracellular Ca2+ increase on agonist addition: CHO cells, concentration-response curves; for Modulation of BzATP-stimulated Ca2+ influx by divalent cation: high concentration of cation (10 mM MgCl2; Cu2+ vs 100 μM BzATP), CHO-K1 and CHO-745
Method: as §1, §2

[4] = target: T1, P2X7 receptor; conditions: 4 mM ATP
Method: P2X7 pore formation was functionality examined in CHO cells by analyzing PI uptake using a FACSCalibur flow cytometer (Becton–Dickinson). The cells were seeded onto six-well plates (10^6 cells/well) and maintained for 48 h at 37 °C under an atmosphere of 5% (v/v) CO2. Subsequently, the cells were harvested using 10 mM EDTA/PBS and adjusted to a concentration of 10^6 cells per tube. The samples were incubated with 5 μM of PI at a final volume of 200 μl/well in fresh serum-free medium F12 for 15 min, followed by the addition of 4 mM ATP and incubation at 37 °C for 30, 60 and 120 min, respectively. The intensity of dye uptake was immediately determined. A total of 10 000 events were collected for each sample.[60],[61]

[5] = system: CHO-K1 and CHO-745 cells; assay: Cell viability (MTT) and cell death (annexin V-APC/7-AAD) assay; type: cell-based; conditions: 24 h; for Morphology of CHO cultures (phase contrast microscopy): 4 mM ATP or 1 mM BzATP; for Cell death (MTT assay): high concentration (ATP >1 mM, BzATP >500 μM), both lines
Method: The viability of CHO cell lines was determined using the MTT assay.[58] […] The medium was removed, 100 μl of MTT (1 mg/ml) was added to each well and the cells were incubated again at 37 °C for 4 h. The supernatant was removed and 200 μl/well of DMSO was added to solubilize the formazan crystals formed. The absorbance was read at 570 nm using a microplate reader, and the cell viability was determined using the standard reduction of the MTT. The results were expressed relative to control cell viability (100%).
Cell death was investigated using annexin V-APC/7-AAD double staining and was analyzed through flow cytometry.[57],[59] […] The suspensions were transferred to tubes, centrifuged and resuspended with annexin V-APC and 7-AAD according to the manufacturer’s instructions. The cells were incubated at room temperature for 30 min, and the viable, apoptotic or necrotic cell populations were evaluated through flow cytometry. The data were collected using a FACSCalibur flow cytometer (Becton–Dickinson) and CellQuest software (Becton–Dickinson), followed by analysis using FlowJo software (Tree Star). […] The results were calculated as the percentage of cell death compared with the control.

[6] = CHO-K1, in presence of 10 mM Mg2+ (MgCl2)
[7] = CHO-745, in presence of 10 mM Mg2+ (MgCl2)

For O=[N+]([O-])c1ccccc1O[C@@H]1OC[C@@H](O)[C@H](O)[C@H]1O [xylosides, o-nitrophenyl-β-D-xylopyranoside], the “Inhibition of response induced through BzATP-gated P2X7” value ([1]; CHO-K1, 2 mM xyloside pre-treatment (120 h), 3 μM BzATP) was 82%, the “Inhibition of response induced through ATP-gated P2X7” value ([1]; CHO-K1, 2 mM xyloside pre-treatment (120 h), 10 μM ATP) was 55% and the “Effect on P2X7 agonist response” value ([2]; CHO-745, 2 mM xyloside pre-treatment) was “did not block the P2X7 agonist response”.

In the case of [Na+].[O-][Cl+2]([O-])[O-] [chlorate, sodium chlorate], the “Inhibition of total P2X7 agonist (ATP or BzATP) response” value ([1]; CHO-K1, pre-treatment 20 or 50 mM sodium chlorate, 24 h) is reported as ~ 35% and the “Effect on P2X7 agonist response” value ([2]; CHO-745, pre-treatment 20 or 50 mM sodium chlorate) is reported as “did not block the P2X7 agonist response”.

Nc1ncnc2c1ncn2[C@@H]1O[C@H](COP(=O)(O)OP(=O)(O)OP(=O)(O)O)[C@@H](OC(=O)c2ccc(C(=O)c3ccccc3)cc2)[C@H]1O (relative stereo) [BzATP+Mg^2+] was tested, and the Emax [1, 6] was 153±6 URF, the Hill coefficient [1, 6] was 1.5±0.1 and the Emax [2, 7] was 119±10 URF. For the same molecule, the Hill coefficient [2, 7] was 2.8±0.3.

With Nc1ncnc2c1ncn2[C@@H]1O[C@H](COP(=O)(O)OP(=O)(O)O)[C@@H](O)[C@H]1O [ADP, adenosine 5′-diphosphate] the “Intracellular Ca2+ increase on agonist addition” value (from here on “Intracellular Ca2+ increase”) [3] was “promoted Ca^2+ increase”.

With Nc1ncnc2c1ncn2C1OC(COP(=O)(O)OP(=O)(O)CP(=O)(O)O)C(O)C1O (stereo not drawn) [βγ-MeATP, β,γ-methyleneadenosine 5′-triphosphate] the “Intracellular Ca2+ increase” value [3] was “did not increase intracellular Ca^2+”.

With Nc1ncnc2c1ncn2[C@@H]1O[C@H](COP(=O)(O)OP(=O)(O)OP(=O)(O)O)[C@@H](O)[C@H]1O [ATP, adenosine 5′-triphosphate] the Emax ([1]; CHO-K1, Ca2+ influx) was 258±10 URF, the Hill coefficient ([1]; CHO-K1, Ca2+ influx) was 0.9±0.1 and the Emax ([2]; CHO-745, Ca2+ influx) was 97±7 URF. The Hill coefficient ([2]; CHO-745, Ca2+ influx) was 2.0±0.3, the “Intracellular Ca2+ increase” value [3] was “promoted Ca^2+ increase” and the “Sensitivity to PI accumulation, CHO-745 less sensitive than CHO-K1” value [4] was 2.5 fold. The “Propidium iodide (PI) uptake” value ([4]; CHO cells, after 30 min at 37 °C) was “induced the time-dependent uptake of propidium iodide”, the “Morphology of CHO cultures (phase contrast microscopy)” value [5] was “increased morphological changes and cell detachment” and the “Cell death (MTT assay)” value [5] was “promoted cell death”.

With [Mg+2] [Mg^2+] the “Modulation of BzATP-stimulated Ca2+ influx by divalent cation” value [3] was “negatively modulated”.

With Nc1ncnc2c1ncn2[C@@H](C=O)O[C@@H](C=O)COP(=O)(O)OP(=O)(O)OP(=O)(O)O [oxATP, adenosine 5′-triphosphate periodate oxidized] the “Effect of antagonist on BzATP-evoked Ca2+ influx” value ([1]; CHO-K1, 300 μM oxATP, 100 μM BzATP) was “abolished the effect of BzATP” and the “Effect of antagonist on BzATP-evoked Ca2+ influx” value ([2]; CHO-745, 300 μM oxATP, 100 μM BzATP) was “abolished the effect of BzATP”.

heparin was tested, and the “Increase of Ca2+cyt response by heparin pre-treatment” value ([1]; CHO-K1, 10 μM ATP) was 120%, the “Potentiation of Ca2+ influx” value ([1]; CHO-K1, 100 μM heparin, 3 μM BzATP) was 2.2 fold and the “Increase of Ca2+cyt response by heparin pre-treatment” value ([1]; CHO-K1, 1 mM ATP) was 78%. The “Increase of Ca2+ response by heparin pre-treatment” value ([2]; CHO-745, 10 μM ATP) was 40%, the “Increase of Ca2+ response by heparin pre-treatment” value ([2]; CHO-745, 1 mM ATP) was 50% and the “Effect of heparin on Ca2+ influx at saturating agonist” value ([3]; BzATP >100 μM or ATP >4 mM) was “induced no further increase in Ca^2+ influx”. For the same molecule, the “P2X7 stimulation by heparin alone” value ([3]; absence of ATP or BzATP, highest heparin concentration) was “did not elicit P2X7 stimulation; also recorded: did not elicit discernible P2X7 activation”.

With [Cu+2] [Cu^2+] the “Modulation of BzATP-stimulated Ca2+ influx by divalent cation” value [3] was “negatively modulated”.

For O=c1ccn([C@@H]2O[C@H](COP(=O)(O)OP(=O)(O)OP(=O)(O)O)[C@@H](O)[C@H]2O)c(=O)[nH]1 [UTP, uridine 5′-triphosphate], the “Intracellular Ca2+ increase” value [3] was “promoted Ca^2+ increase”.

Work on Nc1ncnc2c1ncn2[C@@H]1O[C@H](COP(=O)(O)OP(=O)(O)OP(=O)(O)O)[C@@H](OC(=O)c2ccc(C(=O)c3ccccc3)cc2)[C@H]1O (relative stereo) [BzATP, 2′(3′)-O-(4-benzoylbenzoyl)adenosine 5′-triphosphate] yielded an Emax ([1]; CHO-K1, Ca2+ influx) of 275±8 URF, a Hill coefficient ([1]; CHO-K1, Ca2+ influx) of 1.0±0.1 and an Emax [1, 6] of 153±6 URF. It also gave an Emax ([2]; CHO-745, Ca2+ influx) of 136±6 URF, a Hill coefficient ([2]; CHO-745, Ca2+ influx) of 1.8±0.2 and an Emax [2, 7] of 119±10 URF. The Hill coefficient [2, 7] was 2.8±0.3, the “Intracellular Ca2+ increase” value [3] was “promoted Ca^2+ increase” and the “Morphology of CHO cultures (phase contrast microscopy)” value [5] was “increased morphological changes and cell detachment”. The “Cell death (MTT assay)” value [5] was “promoted cell death”.

With CSc1nc(N)c2ncn([C@@H]3O[C@H](COP(=O)(O)OP(=O)(O)OP(=O)(O)O)[C@@H](O)[C@H]3O)c2n1 [2-MeSATP, 2-(methylthio)adenosine 5′-triphosphate] the “Intracellular Ca2+ increase” value [3] was “did not increase intracellular Ca^2+”.

O=c1ccn([C@@H]2O[C@H](COP(=O)(O)OP(=O)(O)O)[C@@H](O)[C@H]2O)c(=O)[nH]1 [UDP, uridine 5′-diphosphate] was tested, and the “Intracellular Ca2+ increase” value [3] was “promoted Ca^2+ increase”.

With Nc1ncnc2c1ncn2C1OC(COP(=O)(O)CP(=O)(O)OP(=O)(O)O)C(O)C1O (stereo not drawn) [αβ-MeATP, α,β-methyleneadenosine 5′-triphosphate] the “Intracellular Ca2+ increase” value [3] was “did not increase intracellular Ca^2+”.
